Test results reported in patent US20220160814A1, “COMPOSITIONS AND METHODS FOR PROTECTING TYPE 2 ALVEOLAR EPITHELIAL CELLS (AEC2)” (Lung Therapeutics, Inc., priority 2019, published 2022).
Where no end group is shown, it is not given here.

Tested on: IPF fibroblasts
Assay type: cell-based
Method: FIGS. 1A-B. CSP7 deactivates IPF lung fibroblasts. IPF fibroblasts were treated with control peptide, TGFβ (a positive control to stimulate collagen), or a single dose of CSP7 and assayed 24 h later using ELISA against human collagen 1α1 (FIG. 1A). A cell titer glo assay was used to label live IPF fibroblasts grown on 96 well plates (FIG. 1B).
A cell titer glo assay (Promega, G7570) was used to label live IPF fibroblasts grown on 96 well plates. IPF fibroblasts have a senescent phenotype, and as such they release factors that contribute to aberrant wound healing. Inducing apoptosis in IPF fibroblasts may […]. Luminescence was read in a plate reader. […] Luminescence is proportional to living cell number, i.e., a decrease in luminescence correlates with cell death.

Substance: FTTFTVT [CSP7, FTTFTVT]
- apoptosis / live cell number (luminescence): did not stimulate apoptosis
